These are literature values, as cited in US4221778A, “Prolonged release pharmaceutical preparations” (Pennwalt Corporation, priority 1979, dated 1980).

Structures can show the parent of a compound that is named as a salt.

Test in series [1]: not given
The source holds these as a separate data set.

Test in series [2]: not given
This is another data set of the same source.

`CC(C)(N)Cc1ccccc1` [Phentermine hydrochloride]: the “blood levels in humans” value (hydrochloride salt, doses of 15 mg. and 30 mg.) is given as “rapid peak concentrations”.

For `CC(N)C(O)c1ccccc1` (stereo not shown) [PPA, phenylpropanolamine], in series [1], the “biological half life in man” value is 3.9 hours. The pKa in series [2] is listed as 9.4. `CC(C)(N)Cc1ccccc1` [Phentermine, phenyl-tertiary-butyl-amine]: the “absorption from the gastrointestinal tract” value (free form) is given as “rapidly absorbed”.

Consider `COc1ccc2c(c1)[C@]13CCCC[C@@H]1[C@H](C2)N(C)CC3` [Dextromethorphan], for which, in the series on pathological cough (compared with codeine), the “effectiveness in patients with pathological cough” value is listed as “about the equal of codeine”. Also, in the series with pathological cough (human, in vivo), the “analgesic or addictive properties” value is on record as “no analgesic or addictive properties” and the toxicity result is listed as “quite low”. Further, the drowsiness entry in the series on pathological cough (unlike codeine) was “rarely produces drowsiness”. With `CN[C@@H](C)[C@@H](O)c1ccccc1` [Pseudoephedrine], the “biological half life in man” value in series [1] was 5-7 hours.

On to `CN[C@@H](C)[C@H](O)c1ccccc1` [Ephedrine], for which the “biological half life in man” value in series [1] was “about 6 hours”.
